Experimental data published in PubChem BioAssay (NCI).
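These data come from cells grown in 96-well plates and exposed to compound for 48 hours at five concentrations. GI50 = concentration required for 50% inhibition of growth. TGI marks complete inhibition of growth.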

Tests used:
Assay in all cases: NCI tumour cell line growth inhibition, 48 h
786-0 renal = tested on: 786-0 renal
MDA-MB-435 = tested on: MDA-MB-435
NCI-H460 lung = tested on: NCI-H460 lung
SK-MEL-5 melanoma = tested on: SK-MEL-5 melanoma
SR leukemia = tested on: SR leukemia
T-47D breast = tested on: T-47D breast
KM12 colon = tested on: KM12 colon

Question: For CC(O)c1cc2c(s1)C(=O)c1scc(C(C)O)c1C2=O (stereo unspecified), which TGI (786-0 renal) is on record?
Answer: 6.39 µM

Question: What about the TGI (MDA-MB-435) of the same molecule?
Answer: 0.455 µM

Question: And the TGI (NCI-H460 lung)?
Answer: 2.1 µM

Question: What about the TGI (SK-MEL-5 melanoma) of the same molecule?
Answer: 0.351 µM

Question: What about the TGI (SR leukemia) of the same molecule?
Answer: > 100 µM

Question: And the TGI (T-47D breast)?
Answer: 4.53 µM

Question: Which results are given for Cn1cc(-c2nc(-c3c[nH]c4ccncc34)cs2)c2cc(F)ccc21?
Answer: GI50 (KM12 colon): 1630 nM; TGI (KM12 colon): 3.11 µM; GI50 (MDA-MB-435): 1640 nM; TGI (MDA-MB-435): 3.06 µM; GI50 (NCI-H460 lung): 1770 nM; TGI (NCI-H460 lung): 3.42 µM; GI50 (SK-MEL-5 melanoma): 1650 nM; TGI (SK-MEL-5 melanoma): 3.03 µM

Question: For CC1CC(=O)Nc2ccc(N=NN(C)C)cc2N1C=O (stereo unspecified), which TGI (786-0 renal) is on record?
Answer: > 100 µM

Question: And the TGI (KM12 colon)?
Answer: > 100 µM

Question: And the TGI (MDA-MB-435)?
Answer: > 100 µM

Question: And the TGI (NCI-H460 lung)?
Answer: > 100 µM

Question: What about the TGI (SK-MEL-5 melanoma) of the same molecule?
Answer: > 100 µM

Question: What about the TGI (T-47D breast) of the same molecule?
Answer: > 100 µM

Question: Which results are given for CC1(C)O[C@H]2OC(CO)C(OS(C)(=O)=O)[C@H]2O1 (stereo partly specified)?
Answer: TGI (786-0 renal): > 100 µM; TGI (KM12 colon): > 100 µM; TGI (MDA-MB-435): > 100 µM; TGI (NCI-H460 lung): > 100 µM; TGI (SK-MEL-5 melanoma): > 100 µM; TGI (T-47D breast): > 100 µM

Question: COc1ccc2c(c1)CC1(O)COc3cc(OC)ccc3C1O2 (stereo unspecified) was tested. Which TGI (786-0 renal) did it give?
Answer: > 100 µM

Question: And the TGI (KM12 colon)?
Answer: > 100 µM

Question: And the TGI (MDA-MB-435)?
Answer: > 100 µM

Question: What about the TGI (SK-MEL-5 melanoma) of the same molecule?
Answer: > 100 µM

Question: And the TGI (SR leukemia)?
Answer: > 100 µM

Question: What about the TGI (T-47D breast) of the same molecule?
Answer: > 100 µM

Question: COc1ccc(N=N/C(=N/NC(=O)c2cc(Cl)ccc2C(=O)c2ccccc2)c2ccc(N(CCC#N)CCC#N)cc2C)cc1 was tested. Which TGI (786-0 renal) did it give?
Answer: 86.7 µM

Question: And the TGI (KM12 colon)?
Answer: > 100 µM

Question: What about the TGI (MDA-MB-435) of the same molecule?
Answer: > 100 µM

Question: And the TGI (NCI-H460 lung)?
Answer: 45.3 µM

Question: And the TGI (SK-MEL-5 melanoma)?
Answer: 31.6 µM

Question: What about the TGI (T-47D breast) of the same molecule?
Answer: 47.4 µM

Question: For O=C(NN1C(=O)CSC1c1ccco1)c1ccncc1 (stereo unspecified), which TGI (786-0 renal) is on record?
Answer: > 100 µM

Question: What about the TGI (KM12 colon) of the same molecule?
Answer: > 100 µM

Question: What about the TGI (MDA-MB-435) of the same molecule?
Answer: > 100 µM

Question: And the TGI (NCI-H460 lung)?
Answer: > 100 µM

Question: And the TGI (SK-MEL-5 melanoma)?
Answer: > 100 µM

Question: What about the TGI (T-47D breast) of the same molecule?
Answer: > 100 µM

Question: COc1cccc2c1-c1c(OC)cccc1SS2 was tested. Which TGI (786-0 renal) did it give?
Answer: 36.2 µM

Question: What about the TGI (KM12 colon) of the same molecule?
Answer: > 100 µM

Question: What about the TGI (MDA-MB-435) of the same molecule?
Answer: 15.1 µM

Question: And the TGI (NCI-H460 lung)?
Answer: 43.8 µM

Question: And the TGI (SK-MEL-5 melanoma)?
Answer: 26.5 µM

Question: What about the TGI (SR leukemia) of the same molecule?
Answer: 46.4 µM

Question: How did the TGI (786-0 renal) turn out when CN(C)CCCNc1cnc2cc3ccccc3cc2n1 was run?
Answer: > 100 µM

Question: What about the TGI (KM12 colon) of the same molecule?
Answer: 47.4 µM

Question: What about the TGI (MDA-MB-435) of the same molecule?
Answer: 79.2 µM

Question: What about the TGI (NCI-H460 lung) of the same molecule?
Answer: > 100 µM

Question: What about the TGI (SK-MEL-5 melanoma) of the same molecule?
Answer: 45 µM

Question: What about the TGI (SR leukemia) of the same molecule?
Answer: > 100 µM

Question: CC1(C)OCC(COC(=O)NCn2cc(-c3ccccc3)nn2)O1 (stereo unspecified) was tested. Which TGI (786-0 renal) did it give?
Answer: > 100 µM

Question: And the TGI (KM12 colon)?
Answer: > 100 µM

Question: And the TGI (NCI-H460 lung)?
Answer: > 100 µM

Question: And the TGI (SK-MEL-5 melanoma)?
Answer: > 100 µM

Question: And the TGI (SR leukemia)?
Answer: > 100 µM

Question: How did the TGI (786-0 renal) turn out when O=S(=O)(O)c1cc(Nc2ccnc3ccccc23)c2c(S(=O)(=O)O)cc(S(=O)(=O)O)cc2c1 was run?
Answer: > 100 µM

Question: And the TGI (KM12 colon)?
Answer: > 100 µM

Question: And the TGI (MDA-MB-435)?
Answer: > 100 µM

Question: What about the TGI (NCI-H460 lung) of the same molecule?
Answer: > 100 µM

Question: And the TGI (SK-MEL-5 melanoma)?
Answer: > 100 µM

Question: What about the TGI (T-47D breast) of the same molecule?
Answer: > 100 µM

Question: What does the source list for COc1ccc(N2C(N)=C(C#N)C(C#N)(C#N)C2c2cccc([N+](=O)[O-])c2)cc1 (stereo unspecified)?
Answer: TGI (786-0 renal): 29.1 µM; TGI (KM12 colon): 33.9 µM; TGI (MDA-MB-435): 31.9 µM; TGI (SK-MEL-5 melanoma): 27.4 µM; TGI (SR leukemia): > 66 µM; TGI (T-47D breast): 28 µM

Question: Which results are given for N#CCOc1cccc(C2(N3CC=CCC3)CCCCC2)c1?
Answer: TGI (786-0 renal): > 100 µM; TGI (KM12 colon): > 100 µM; TGI (MDA-MB-435): > 100 µM; TGI (SK-MEL-5 melanoma): > 100 µM; TGI (SR leukemia): > 100 µM; TGI (T-47D breast): > 100 µM

Question: Which results are given for COc1cc(O)c2c(=O)c(OC)c(-c3ccc4c(c3)OCO4)oc2c1OC?
Answer: TGI (786-0 renal): > 50 µM; TGI (KM12 colon): > 50 µM; TGI (MDA-MB-435): > 50 µM; TGI (NCI-H460 lung): > 50 µM; TGI (SK-MEL-5 melanoma): > 50 µM; TGI (T-47D breast): > 50 µM

Question: How did the TGI (786-0 renal) turn out when CCOC(=O)C1=CC(C)(C(=O)OCC)Nc2c(nc(SC)n(C)c2=O)N1 (stereo unspecified) was run?
Answer: > 10 µM

Question: What about the TGI (KM12 colon) of the same molecule?
Answer: > 10 µM

Question: What about the TGI (MDA-MB-435) of the same molecule?
Answer: > 10 µM

Question: And the TGI (NCI-H460 lung)?
Answer: > 10 µM

Question: What about the TGI (SK-MEL-5 melanoma) of the same molecule?
Answer: > 10 µM

Question: What about the TGI (T-47D breast) of the same molecule?
Answer: > 10 µM
